Assay results as given in the supplement of paper PMC10307832.

Legend:
Test in all cases: relative viability (nuclei count vs DMSO), 5 days (fraction); higher = more cells survive
RU-SKI 43 + Olaparib = compound: CC[C@@H](C)CNCC(=O)N1CCC2=C([C@@H]1COC3=CC=CC(=C3)C)C=CS2 [RU-SKI 43] + O=C(c1cc(Cc2n[nH]c(=O)c3ccccc23)ccc1F)N1CCN(C(=O)C2CC2)CC1 [Olaparib] (partner 8 µM)
How it was run: (§1)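 Lung cancer cell lines, seeded in 1536-well plates, were treated the following day by pin tool with a single drug or with five library-drug doses (not always all listed) in √10 steps on top of a fixed anchor-drug dose. Cells were fixed and nuclei stained in one step after 5 days, and nuclei were counted. Relative viability is the nuclei count for treated wells divided by that for vehicle wells, reported as medians of duplicate plates.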

Irinotecan + Dasatinib = compound: CCc1c2c(nc3ccc(OC(=O)N4CCC(N5CCCCC5)CC4)cc13)-c1cc3c(c(=O)n1C2)COC(=O)[C@]3(O)CC [Irinotecan] + Cc1nc(Nc2ncc(C(=O)Nc3c(C)cccc3Cl)s2)cc(N2CCN(CCO)CC2)n1 [Dasatinib] (partner 0.075 µM)
How it was run: as §1

Irinotecan + AZD7762 = compound: CCc1c2c(nc3ccc(OC(=O)N4CCC(N5CCCCC5)CC4)cc13)-c1cc3c(c(=O)n1C2)COC(=O)[C@]3(O)CC [Irinotecan] + NC(=O)Nc1cc(-c2cccc(F)c2)sc1C(=O)N[C@H]1CCCNC1 [AZD7762] (partner 0.2 µM)
How it was run: as §1

Irinotecan + Pictilisib = compound: CCc1c2c(nc3ccc(OC(=O)N4CCC(N5CCCCC5)CC4)cc13)-c1cc3c(c(=O)n1C2)COC(=O)[C@]3(O)CC [Irinotecan] + CS(=O)(=O)N1CCN(Cc2cc3nc(-c4cccc5[nH]ncc45)nc(N4CCOCC4)c3s2)CC1 [Pictilisib] (partner 1 µM)
How it was run: as §1

| Cell Line | relative viability (RU-SKI 43 + Olaparib; first compound 0.1 µM) | relative viability (RU-SKI 43 + Olaparib; first compound 0.3162 µM) | relative viability (RU-SKI 43 + Olaparib; first compound 1 µM) | relative viability (RU-SKI 43 + Olaparib; first compound 3.162 µM) | relative viability (RU-SKI 43 + Olaparib; first compound 10 µM) | relative viability (Irinotecan + Dasatinib; first compound 0.6325 µM) | relative viability (Irinotecan + Dasatinib; first compound 2 µM) | relative viability (Irinotecan + Dasatinib; first compound 6.325 µM) | relative viability (Irinotecan + Dasatinib; first compound 20 µM) | relative viability (Irinotecan + AZD7762; first compound 0.6325 µM) | relative viability (Irinotecan + AZD7762; first compound 2 µM) | relative viability (Irinotecan + AZD7762; first compound 6.325 µM) | relative viability (Irinotecan + AZD7762; first compound 20 µM) | relative viability (Irinotecan + Pictilisib; first compound 0.6325 µM) | relative viability (Irinotecan + Pictilisib; first compound 2 µM) | relative viability (Irinotecan + Pictilisib; first compound 6.325 µM) | relative viability (Irinotecan + Pictilisib; first compound 20 µM) |
| --- | --- | --- | --- | --- | --- | --- | --- | --- | --- | --- | --- | --- | --- | --- | --- | --- | --- |
| LU99A | 0.261 | 0.276 | 0.285 | 0.271 | 0.262 | 0.303 | 0.322 | 0.248 | 0.177 | 0.152 | 0.13 | 0.106 | 0.132 | 0.206 | 0.211 | 0.206 | 0.235 |
| LXF-289 | 1.09 | 1.09 | 1.17 | 1.16 | 0.948 | 0.138 | 0.265 | 0.172 | 0.139 | 1.01 | 1.05 | 0.425 | 0.192 | 0.745 | 0.7 | 0.206 | 0.158 |
| NCI-H23 | 0.28 | 0.263 | 0.292 | 0.326 | 0.279 | 0.563 | 0.679 | 0.274 | 0.231 | 0.158 | 0.238 | 0.251 | 0.202 | 0.397 | 0.442 | 0.256 | 0.258 |
| NCI-H322M | 0.703 | 0.817 | 0.76 | 0.797 | 0.703 | 0.247 | 0.331 | 0.358 | 0.191 | 0.537 | 0.553 | 0.448 | 0.28 | 0.532 | 0.507 | 0.344 | 0.338 |
| NCI-H358 | 0.548 | 0.936 | 0.756 | 0.636 | 0.545 | 0.142 | 0.151 | 0.136 | 0.105 | 0.38 | 0.508 | 0.339 | 0.349 | 0.265 | 0.387 | 0.282 | 0.171 |
| NCI-H441 | 0.709 | 0.576 | 0.627 | 0.736 | 0.542 | 0.461 | 0.577 | 0.286 | 0.22 | 0.964 | 0.411 | 0.277 | 0.288 | 0.434 | 0.314 | 0.216 | 0.32 |
| NCI-H460 | 0.389 | 0.702 | 0.47 | 0.49 | 0.334 | 0.402 | 0.301 | 0.0681 | 0.0459 | – | 0.202 | 0.0963 | 0.0901 | 0.328 | 0.314 | 0.0912 | 0.0812 |
| NCI-H596 | 0.719 | 0.548 | 0.654 | 0.712 | 0.709 | 0.576 | 0.765 | 0.703 | 0.633 | 1.07 | 1.15 | 0.88 | 0.913 | 0.395 | 0.394 | 0.382 | 0.484 |
| NCI-H647 | 0.584 | 0.821 | 0.512 | 0.695 | 0.628 | 0.123 | 0.187 | 0.131 | 0.0807 | 0.294 | 0.273 | 0.131 | 0.2 | – | 0.65 | 0.219 | 0.208 |
| NCI-H650 | 0.404 | 0.517 | – | 0.38 | 0.406 | 0.34 | 0.396 | 0.215 | 0.245 | 0.722 | 1.09 | 0.309 | 0.217 | 0.798 | 0.297 | 0.294 | 0.307 |
| NCI-H727 | – | 0.515 | 0.694 | 0.67 | 0.624 | 0.243 | 0.467 | 0.437 | 0.438 | 0.462 | 0.575 | 0.406 | 0.342 | 0.277 | 0.353 | 0.35 | 0.289 |
| NCI-H838 | 0.842 | 0.798 | 0.806 | 0.798 | 0.738 | 0.213 | 0.259 | 0.249 | 0.247 | 0.887 | 0.787 | 0.749 | 0.645 | 0.472 | 0.403 | 0.279 | 0.214 |
| NCI-H1355 | 0.742 | 0.72 | 0.724 | 0.797 | 0.775 | – | 0.85 | 0.511 | 0.272 | – | 0.68 | 0.368 | 0.257 | 0.201 | 0.407 | 0.202 | 0.238 |
| NCI-H1395 | 0.452 | 0.417 | 0.451 | 0.477 | 0.46 | 0.298 | 0.535 | 0.415 | 0.522 | – | 0.441 | 0.424 | 0.233 | – | 0.539 | 0.471 | 0.35 |
| NCI-H1437 | 0.638 | 0.681 | 0.632 | 0.643 | 0.575 | 0.229 | 0.534 | 0.254 | 0.111 | 0.891 | 0.557 | 0.261 | 0.174 | 0.366 | 0.322 | 0.184 | 0.115 |
| NCI-H1651 | 0.16 | 0.188 | 0.195 | 0.213 | 0.185 | 0.319 | 0.311 | 0.281 | 0.112 | 0.234 | 0.368 | 0.172 | 0.15 | 0.427 | 0.425 | 0.175 | 0.108 |
| NCI-H1666 | 0.691 | 0.681 | 0.773 | 0.741 | 0.743 | 0.864 | 0.657 | 0.486 | 0.348 | 0.815 | 0.687 | 0.552 | 0.503 | 0.559 | 0.338 | 0.409 | 0.311 |
